These results are taken from ChEMBL document CHEMBL6134904, “Discovery of Potent PDEδ/NAMPT Dual Inhibitors: Preclinical Evaluation in KRAS Mutant Pancreatic Cancer Cells” (J Med Chem, 2025).

pIC50, pKd: −log10 of the molar value. A value given as a limit tells only on which side of the number the result lay.

Experiment [1] concerns the target Nicotinamide phosphoribosyltransferase (Homo sapiens, UniProt P43490).
Description: Inhibition of NAMPT (unknown origin) using NAM as substrate preincubated for 5 mins followed by substrate addition and measured after 15 mins by fluorescence based microtiter plate reader analysis
For experiment [2], the system named is A549. In words: cells. The following applies: Homo sapiens, A549, 72 h.
Description: Antiproliferative activity against human A549 cells assessed as inhibition of cell growth incubated for 72 hrs by CCK8 assay
Experiment [3] has as its system MIA PaCa-2. The experiment is described as follows: cells. The following applies: Homo sapiens, MIA PaCa-2, 72 h.
Description: Antiproliferative activity against human MIA PaCa-2 cells assessed as inhibition of cell growth incubated for 72 hrs by CCK8 assay
The test system of experiment [4] is HCT-116. The experiment is described as follows: cells. The note with it: Homo sapiens, HCT-116, 72 h.
Description: Antiproliferative activity against human HCT-116 cells assessed as inhibition of cell growth incubated for 72 hrs by CCK8 assay
Experiment [5] concerns MIA PaCa-2. In words: Antiproliferative activity against human MIA PaCa-2 cells assessed as inhibition of cell growth incubated for 72 hrs in presence of 1-(4-(piperidin-1-ylsulfonyl)phenyl)-3-(pyridin-3-ylmethyl)thiourea by CCK8 assay. The format is functional, cell-based. The note with it: MIA PaCa-2, 72 h. (In general: Formazan colour is commonly taken as a measure of viable cells.)

Experiment [6] has as its system MIA PaCa-2. In words: Synergistic antiproliferative activity against human MIA PaCa-2 cells harboring KRAS G12C mutant assessed as inhibition of cell growth by measuring combination index at 1:2 molar ratio of test compound:1-(4-(piperidin-1-ylsulfonyl)phenyl)-3-(pyridin-3-ylmethyl)thiourea by chou-talalay method. The format is functional.
For experiment [7], the system named is HCT-116. The experiment is described as follows: Antiproliferative activity against human HCT-116 cells assessed as inhibition of cell growth incubated for 72 hrs in presence of 1-(4-(piperidin-1-ylsulfonyl)phenyl)-3-(pyridin-3-ylmethyl)thiourea by CCK8 assay. The format is functional, cell-based. The note with it: HCT-116, 72 h.
In experiment [8] the test system is MIA PaCa-2. The experiment is described as follows: Antitumor activity against human MIA PaCa-2 cells xenografted in female BALB/C nude mouse assessed as tumor growth inhibition at 20 mg/kg, ip administered once daily for 21 days relative to control. The following applies: MIA PaCa-2, 504 h, read-out: TGI. Background: Xenograft models place foreign cells or tissue in a host animal.

In experiment [9] the target is Retinal rod rhodopsin-sensitive cGMP 3',5'-cyclic phosphodiesterase subunit delta (Homo sapiens, UniProt O43924).
In experiment [10] the test system is A549. The experiment is described as follows: Antiproliferative activity against human A549 cells assessed as inhibition of cell growth incubated for 72 hrs in presence of 1-(4-(piperidin-1-ylsulfonyl)phenyl)-3-(pyridin-3-ylmethyl)thiourea by CCK8 assay. In kind it is functional, cell-based. The note with it: A549, 72 h.
For experiment [11], the system named is MIA PaCa-2. The experiment is described as follows: Antitumor activity against human MIA PaCa-2 cells xenografted in female BALB/C nude mouse assessed as tumor growth inhibition at 20 mg/kg, ip co-administered with 1-(4-(piperidin-1-ylsulfonyl)phenyl)-3-(pyridin-3-ylmethyl)thiourea once daily for 21 days relative to control. The following applies: MIA PaCa-2, 504 h, time 21 day, read-out: TGI. The format is functional.

Sequence of Retinal rod rhodopsin-sensitive cGMP 3',5'-cyclic phosphodiesterase subunit delta (O43924 whole entry): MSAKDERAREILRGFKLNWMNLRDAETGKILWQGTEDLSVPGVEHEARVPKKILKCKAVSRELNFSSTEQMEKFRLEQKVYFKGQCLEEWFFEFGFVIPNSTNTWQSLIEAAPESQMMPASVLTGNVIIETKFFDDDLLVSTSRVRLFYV
Sequence of Nicotinamide phosphoribosyltransferase (P43490 whole entry): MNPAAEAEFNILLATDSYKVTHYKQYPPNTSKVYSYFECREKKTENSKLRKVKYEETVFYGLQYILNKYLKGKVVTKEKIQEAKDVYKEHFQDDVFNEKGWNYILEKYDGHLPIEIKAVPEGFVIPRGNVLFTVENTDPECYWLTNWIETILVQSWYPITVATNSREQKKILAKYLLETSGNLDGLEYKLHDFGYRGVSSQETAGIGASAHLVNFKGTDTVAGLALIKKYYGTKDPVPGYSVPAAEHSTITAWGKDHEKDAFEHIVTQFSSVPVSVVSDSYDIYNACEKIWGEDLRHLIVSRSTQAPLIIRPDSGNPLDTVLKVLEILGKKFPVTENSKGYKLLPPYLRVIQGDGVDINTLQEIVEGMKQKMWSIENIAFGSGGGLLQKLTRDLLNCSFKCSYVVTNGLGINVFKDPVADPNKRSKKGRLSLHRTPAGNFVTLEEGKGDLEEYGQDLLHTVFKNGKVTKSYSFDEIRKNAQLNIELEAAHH

Regarding `O=C(/C=C/c1cccnc1)Nc1ccc(S(=O)(=O)N(Cc2ccc(Cl)cc2)C2CCCC2)cc1`, the pIC50 (in general, the IC50 on a negative log10 scale, so that one unit is a factor of ten) in [1] is 6.58; in the experiment with A549 [2], 7.85; with MIA PaCa-2 [3] it was 7.44; in the experiment on HCT-116 [4] it was 6.15.

In the case of `Cc1ccc(-n2nc3c(=O)n(CCC(=O)N4CCC(N5C(=O)c6ccccc6NC5c5ccccc5F)CC4)nc(C)c3c2C)cc1` (centres undefined), the pIC50 was 6.89 with MIA PaCa-2 [5]; 6.63 in the experiment with HCT-116 [7]; less than 4.70 in the experiment with A549 [2]; less than 4.70 in the experiment on MIA PaCa-2 [3]; 5.16 with HCT-116 [4]; 7.41 in the experiment on A549 [10]. The CI in the experiment on MIA PaCa-2 [6] is less than 1. Further, the inhibition in vivo at 20 mg/kg was 26.8% in the experiment with MIA PaCa-2 [8] and 44.1% in the experiment with MIA PaCa-2 [11]. Also, the pKd (in general, the Kd on a negative log10 scale, so that one unit is a factor of ten) in experiment [9] was 8.29.
